Results reported in patent publication US20190291112A1, “DROPLET MICROFLUIDICS FOR DRUG SCREENING” (University of Macau, priority 2018, published 2019).

System: NAS1605 primary nasopharyngeal tumor sample
Assay: On chip drug screening of primary tumor dissociated cells
Type: cell-based, human
Conditions: NAS1605, 16-24 h, normalized to mock treatment
Method: All human studies were conducted with the approval of the Panel on Research Ethics of University of Macau and the Research Ethics Committee of Kiang Wu Hospital, according to the Materials Transfer Agreement between University of Macau and Kiang Wu Hospital. Informed consent for sampling and publication without identifiable information was obtained from all participating patients. All patient sample names were double encoded by the university and the hospital, respectively, to remove any trace of patient identity during sample collection, transfer, processing and analysis. Primary tumors were obtained from surgery conducted at Kiang Wu Hospital immediately after tumor resection. Tumor tissue was dissociated as previously described. Briefly, tumor tissue was first cut into small pieces by a scalpel, then transferred to a 50 mL conical tube containing 5 mL Digestion Buffer I (DMEM/F12 medium containing 5% FBS, 5 μg/mL insulin, 500 ng/mL hydrocortisone, 10 ng/mL epidermal growth factor (EGF), 20 ng/mL cholera toxin, 300 U/mL collagenase III and 100 U/mL hyaluronidase), and digested for no more than 12 h with shaking at 100 rpm in humidified incubator at 37° C. supplemented with 5% CO2. After spinning down at 400 g at ambient temperature for 2 min, the cells were resuspended with 2 mL Digestion Buffer II (DMEM/F12 medium containing 5 mg/mL dispase II and 0.1 mg/mL deoxyribonuclease I), followed by digestion at ambient temperature for 5 min. The cells were then washed with 10 mL HBSS (Life Technologies, USA). […]
Briefly, cells at final concentrations of 1-2×10^6 cells per mL were aliquoted in 0.2 mL PCR tubes, then mixed with corresponding drugs and 2 μM ethidium homodimer 1 (Life Technologies, USA) by manual pipetting. […] Brightfield and red fluorescence images (Ex. 531/40 nm, Em. 593/40 nm) were taken under 10× magnification (Life Technologies EVOS FL Imaging System, USA).
For on chip assays, the number of cells was counted in brightfield and red fluorescence images from each well respectively. Cell viability was calculated as follows: […]

**Q.** How did the “dose dependence of normalized cell viability” value turn out when `CC(C)C[C@H](NC(=O)[C@H](Cc1ccccc1)NC(=O)c1cnccn1)B(O)O` [bortezomib] was run?
**A.** Its value is “dose-dependent reduction of cell viability”.
